SMILES strings stand for the structures.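 All cell lines were grown in 96-well plates and treated with compound for 48 hours. The concentration for 50% growth inhibition is given as GI50. TGI is the concentration that stops growth completely.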 A value given as a limit tells only on which side of the number the result lay.

Among the test systems are SK-MEL-28 melanoma; HOP-62 NSCLC; HCT-15 colon; IGROV1 ovarian; SR leukemia; SW-620 colon; MDA-MB-231 breast; UACC-257 melanoma; U251 CNS; HOP-92 NSCLC.
What all share (assay): NCI tumour cell line growth inhibition, 48 h

On to `Cc1nc2ccc(NC(=O)CCNC(=O)CCCc3ccc(CC(C(=O)O)C(=O)O)cc3)cc2s1`, for which the GI50 with SK-MEL-28 melanoma, in the assay on HOP-62 NSCLC, with HCT-15 colon, in the assay on IGROV1 ovarian, in the assay with SR leukemia and in the assay on SW-620 colon was > 100 µM each time. For the same compound, the GI50 with MDA-MB-231 breast, in the assay on UACC-257 melanoma, in the assay with U251 CNS and in the assay with HOP-92 NSCLC was > 100 µM throughout. Besides, the TGI in the assay with SK-MEL-28 melanoma, in the assay with HOP-62 NSCLC, with HCT-15 colon, with IGROV1 ovarian, in the assay with SR leukemia and with SW-620 colon was > 100 µM in each case. Besides, the TGI in the assay with MDA-MB-231 breast, with UACC-257 melanoma, in the assay on U251 CNS and in the assay with HOP-92 NSCLC was > 100 µM each time.
For `CC1=Nc2ccccc2/C1=C\c1c(C)[nH]c2ccccc12`, the TGI in the assay with SK-MEL-28 melanoma worked out at 37.9 µM; with HOP-62 NSCLC, 69.7 µM; in the assay with HCT-15 colon it was 31.5 µM; in the assay with IGROV1 ovarian it was 25.4 µM; with SR leukemia, 47.5 µM; in the assay on SW-620 colon, 28.5 µM. The TGI worked out at 33.3 µM in the assay on MDA-MB-231 breast, 30.3 µM in the assay with UACC-257 melanoma, 33.3 µM with U251 CNS and 17.4 µM in the assay with HOP-92 NSCLC.
Consider `c1ccc2c(c1)SCCCSCCSCCCS2`, for which the TGI with SK-MEL-28 melanoma, with HOP-62 NSCLC, with HCT-15 colon, with IGROV1 ovarian, with SR leukemia and with SW-620 colon was > 100 µM each time. Moreover, the TGI in the assay with MDA-MB-231 breast, in the assay with UACC-257 melanoma, in the assay with U251 CNS and in the assay with HOP-92 NSCLC was > 100 µM each time.
Turning to `COc1cc(NC(=O)CCSc2nc3ccc(C)cc3c(=O)n2Cc2ccccc2)cc(OC)c1OC`, the GI50 in the assay with SK-MEL-28 melanoma is 6.3 µM; with HOP-62 NSCLC it was 2.94 µM; in the assay with HCT-15 colon, > 100 µM; in the assay on IGROV1 ovarian it was 27.7 µM; in the assay with SR leukemia, > 100 µM; in the assay on SW-620 colon, > 100 µM. The GI50 was 4.2 µM in the assay on MDA-MB-231 breast, 4.96 µM in the assay on UACC-257 melanoma, 7.06 µM in the assay on U251 CNS and 1.9 µM in the assay on HOP-92 NSCLC. The TGI is > 100 µM in the assay on SK-MEL-28 melanoma; 9.47 µM in the assay with HOP-62 NSCLC; > 100 µM with HCT-15 colon; > 100 µM in the assay with IGROV1 ovarian; > 100 µM in the assay on SR leukemia; > 100 µM in the assay with SW-620 colon. The TGI with MDA-MB-231 breast was 52.8 µM; in the assay on UACC-257 melanoma it was > 100 µM; in the assay on U251 CNS, 63.1 µM; in the assay on HOP-92 NSCLC, 7.99 µM.
`COC(=O)C1C(O)C(C)C(O)C(C)C=C(C)C2=C3C(=C(C)C(=O)c4c(O)c(c(C)c(OC(C)=O)c43)NC(=O)C(C)=C/C=C\C(C)C(O)C(C)C1O)OCO2` (stereo not given): the TGI with SK-MEL-28 melanoma was 47.3 µM; in the assay with HOP-62 NSCLC, > 100 µM; in the assay on HCT-15 colon, 65.9 µM; with IGROV1 ovarian it was > 100 µM; in the assay on SR leukemia, 47.6 µM; in the assay on SW-620 colon, 56.4 µM. Further, the TGI was 77.6 µM in the assay on MDA-MB-231 breast, 37.4 µM in the assay with UACC-257 melanoma, > 100 µM in the assay with U251 CNS and > 100 µM in the assay on HOP-92 NSCLC.
For `COc1cc(C)c(C2NC(=O)c3ccccc3N2)cc1C` (stereo not given), the TGI with SK-MEL-28 melanoma is > 100 µM; with HOP-62 NSCLC, > 97.1 µM; in the assay on HCT-15 colon, 10 µM; in the assay with IGROV1 ovarian, > 100 µM; with SR leukemia, > 8.5 µM; in the assay with SW-620 colon it was > 100 µM. For the same compound, the TGI in the assay with MDA-MB-231 breast was > 85.7 µM; in the assay with UACC-257 melanoma it was > 100 µM; in the assay on U251 CNS it was 13.9 µM; with HOP-92 NSCLC, > 86.5 µM.
As to `C=C1CCC2(C#N)[C@H]3[C@H](CC[C@@H]2C)[C@@H](C)C[C@@H](CC(C)(C)NC(=O)CN2CCC2=O)[C@H]13` (stereo not given in full), the GI50 was 10.2 µM with SK-MEL-28 melanoma; 12.3 µM in the assay with HOP-62 NSCLC; 3.68 µM in the assay with HCT-15 colon; 6.03 µM with IGROV1 ovarian; 4.02 µM with SR leukemia; 11.3 µM with SW-620 colon. The GI50 is 7.97 µM in the assay on MDA-MB-231 breast, 5.4 µM with UACC-257 melanoma, 4.27 µM in the assay with U251 CNS and 3.12 µM in the assay with HOP-92 NSCLC. The TGI was 23 µM with SK-MEL-28 melanoma; 29 µM in the assay with HOP-62 NSCLC; 26.8 µM in the assay on HCT-15 colon; 23 µM with IGROV1 ovarian; 23.6 µM with SR leukemia; 32.3 µM in the assay on SW-620 colon. Moreover, the TGI with MDA-MB-231 breast turned out to be 44.3 µM; with UACC-257 melanoma, 26.7 µM; in the assay on U251 CNS, 16.6 µM; in the assay with HOP-92 NSCLC, 27.5 µM.
On to `Cc1c2c(c(C)c3c4c(oc13)CCCC4)C=NCC2`, for which the TGI amounted to 35.7 µM with SK-MEL-28 melanoma; 60.6 µM in the assay with HOP-62 NSCLC; 34.4 µM with HCT-15 colon; 26.5 µM with IGROV1 ovarian; 23.4 µM in the assay with SR leukemia; 59.3 µM in the assay on SW-620 colon. For the same compound, the TGI in the assay with MDA-MB-231 breast is 32.9 µM; with UACC-257 melanoma, 29.5 µM; in the assay with U251 CNS, 26.8 µM; in the assay with HOP-92 NSCLC, 25.4 µM.
Consider `NN=C(CC(O)(C(F)(F)Cl)C(F)(F)Cl)CC(O)(C(F)(F)Cl)C(F)(F)Cl`, for which the TGI with SK-MEL-28 melanoma, in the assay with HOP-62 NSCLC, with HCT-15 colon, in the assay with IGROV1 ovarian, in the assay with SR leukemia and in the assay with SW-620 colon was > 10 µM in each case. The TGI with MDA-MB-231 breast, in the assay on UACC-257 melanoma, in the assay on U251 CNS and with HOP-92 NSCLC was > 10 µM each time.

Values taken from PubChem BioAssay (NCI).
